Tests used:
[1] = target: Alpha-1D adrenergic receptor (Homo sapiens) (UniProt P25100); conditions: Compound concentration 10.0 uM
[2] = target: Vascular endothelial growth factor receptor 3 (Homo sapiens) (UniProt P35916); conditions: Compound concentration 1.0 uM
[3] = target: NT-3 growth factor receptor (Homo sapiens) (UniProt Q16288); conditions: Compound concentration 1.0 uM
[4] = target: cAMP-dependent protein kinase catalytic subunit alpha (Homo sapiens) (UniProt P17612); conditions: Compound concentration 1.0 uM
[5] = target: Protein kinase C zeta type (Homo sapiens) (UniProt Q05513); conditions: Compound concentration 1.0 uM
[6] = target: Platelet-derived growth factor receptor alpha (Homo sapiens) (UniProt P16234); conditions: Compound concentration 1.0 uM
[7] = target: Tyrosine-protein kinase Yes (Homo sapiens) (UniProt P07947); conditions: Compound concentration 1.0 uM
[8] = target: Serine/threonine-protein kinase SIK3 (Homo sapiens) (UniProt Q9Y2K2); conditions: Compound concentration 1.0 uM
[9] = target: T1, Tyrosine-protein kinase Mer (Homo sapiens) (UniProt Q12866); conditions: Compound concentration 1.0 uM
T1 sequence (whole entry): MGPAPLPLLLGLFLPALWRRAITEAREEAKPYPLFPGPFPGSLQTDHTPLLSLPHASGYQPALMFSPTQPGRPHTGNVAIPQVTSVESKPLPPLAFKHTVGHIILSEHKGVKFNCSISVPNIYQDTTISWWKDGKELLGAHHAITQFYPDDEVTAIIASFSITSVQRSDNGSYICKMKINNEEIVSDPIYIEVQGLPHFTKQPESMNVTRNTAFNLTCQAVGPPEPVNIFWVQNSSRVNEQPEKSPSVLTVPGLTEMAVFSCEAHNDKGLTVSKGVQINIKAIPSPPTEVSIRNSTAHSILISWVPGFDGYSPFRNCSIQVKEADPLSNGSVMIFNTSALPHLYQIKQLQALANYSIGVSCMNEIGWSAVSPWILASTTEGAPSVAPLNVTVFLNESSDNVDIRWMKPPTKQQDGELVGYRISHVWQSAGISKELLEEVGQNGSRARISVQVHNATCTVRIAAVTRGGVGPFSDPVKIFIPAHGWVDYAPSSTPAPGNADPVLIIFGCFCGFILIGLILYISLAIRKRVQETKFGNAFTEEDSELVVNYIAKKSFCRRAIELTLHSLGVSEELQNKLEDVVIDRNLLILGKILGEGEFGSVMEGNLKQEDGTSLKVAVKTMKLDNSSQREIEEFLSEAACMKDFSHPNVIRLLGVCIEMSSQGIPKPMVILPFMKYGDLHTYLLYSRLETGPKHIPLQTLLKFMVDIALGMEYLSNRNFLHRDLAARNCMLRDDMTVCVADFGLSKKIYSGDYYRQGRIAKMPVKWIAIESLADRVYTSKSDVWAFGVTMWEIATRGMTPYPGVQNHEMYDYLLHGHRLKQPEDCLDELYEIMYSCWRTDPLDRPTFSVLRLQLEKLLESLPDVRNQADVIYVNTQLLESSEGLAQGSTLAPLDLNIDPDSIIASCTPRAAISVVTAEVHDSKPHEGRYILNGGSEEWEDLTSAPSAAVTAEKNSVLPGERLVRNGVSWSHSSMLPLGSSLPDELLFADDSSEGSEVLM

[10] = target: Maternal embryonic leucine zipper kinase (Homo sapiens) (UniProt Q14680); conditions: Compound concentration 1.0 uM
[11] = target: T2, Homeodomain-interacting protein kinase 4 (Homo sapiens) (UniProt Q8NE63); conditions: Compound concentration 1.0 uM
T2 sequence (whole entry): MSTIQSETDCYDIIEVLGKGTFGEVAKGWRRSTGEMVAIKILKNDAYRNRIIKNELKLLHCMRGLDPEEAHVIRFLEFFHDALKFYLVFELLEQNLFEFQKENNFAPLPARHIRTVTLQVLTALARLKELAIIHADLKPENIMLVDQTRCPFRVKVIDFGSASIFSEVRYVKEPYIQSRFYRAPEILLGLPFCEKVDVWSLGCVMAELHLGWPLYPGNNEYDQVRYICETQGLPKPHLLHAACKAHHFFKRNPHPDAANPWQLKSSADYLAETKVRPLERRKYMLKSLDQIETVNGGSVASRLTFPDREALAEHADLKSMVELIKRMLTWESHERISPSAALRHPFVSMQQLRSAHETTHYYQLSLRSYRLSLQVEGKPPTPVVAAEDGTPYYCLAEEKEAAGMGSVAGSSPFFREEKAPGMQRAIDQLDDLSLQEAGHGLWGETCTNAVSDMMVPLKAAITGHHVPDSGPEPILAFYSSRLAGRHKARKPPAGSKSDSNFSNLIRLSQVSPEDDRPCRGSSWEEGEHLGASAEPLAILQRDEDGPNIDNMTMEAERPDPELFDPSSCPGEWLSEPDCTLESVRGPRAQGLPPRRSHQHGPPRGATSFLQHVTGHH

[12] = target: Serine/threonine-protein kinase Nek4 (Homo sapiens) (UniProt P51957); conditions: Compound concentration 1.0 uM
[13] = target: Serine/threonine-protein kinase pim-2 (Homo sapiens) (UniProt Q9P1W9); conditions: Compound concentration 1.0 uM
[14] = target: Receptor-interacting serine/threonine-protein kinase 2 (Homo sapiens) (UniProt O43353); conditions: Compound concentration 1.0 uM
[15] = target: MAP kinase-activated protein kinase 2 (Homo sapiens) (UniProt P49137); conditions: Compound concentration 1.0 uM
[16] = target: Glycogen synthase kinase-3 alpha (Homo sapiens) (UniProt P49840); conditions: Compound concentration 1.0 uM

Alpha-1D adrenergic receptor (Homo sapiens), sequence (P25100 whole entry): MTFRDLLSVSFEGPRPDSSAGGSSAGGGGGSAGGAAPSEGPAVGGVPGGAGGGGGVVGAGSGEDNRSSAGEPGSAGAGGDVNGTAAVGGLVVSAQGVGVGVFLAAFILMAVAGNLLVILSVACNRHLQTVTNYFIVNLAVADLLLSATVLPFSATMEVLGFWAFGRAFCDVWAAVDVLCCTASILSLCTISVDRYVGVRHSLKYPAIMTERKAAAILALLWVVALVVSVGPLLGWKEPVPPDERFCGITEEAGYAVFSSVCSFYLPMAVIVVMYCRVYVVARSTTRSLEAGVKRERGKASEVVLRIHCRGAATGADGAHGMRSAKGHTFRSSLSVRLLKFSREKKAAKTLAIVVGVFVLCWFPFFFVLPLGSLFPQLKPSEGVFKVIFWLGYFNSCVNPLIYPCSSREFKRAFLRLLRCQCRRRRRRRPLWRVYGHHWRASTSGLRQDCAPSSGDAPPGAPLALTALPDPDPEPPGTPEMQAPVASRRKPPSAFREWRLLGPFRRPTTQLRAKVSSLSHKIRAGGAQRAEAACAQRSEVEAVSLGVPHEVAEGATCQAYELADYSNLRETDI
Tyrosine-protein kinase Yes (Homo sapiens), sequence (P07947 2-543 limits assumed): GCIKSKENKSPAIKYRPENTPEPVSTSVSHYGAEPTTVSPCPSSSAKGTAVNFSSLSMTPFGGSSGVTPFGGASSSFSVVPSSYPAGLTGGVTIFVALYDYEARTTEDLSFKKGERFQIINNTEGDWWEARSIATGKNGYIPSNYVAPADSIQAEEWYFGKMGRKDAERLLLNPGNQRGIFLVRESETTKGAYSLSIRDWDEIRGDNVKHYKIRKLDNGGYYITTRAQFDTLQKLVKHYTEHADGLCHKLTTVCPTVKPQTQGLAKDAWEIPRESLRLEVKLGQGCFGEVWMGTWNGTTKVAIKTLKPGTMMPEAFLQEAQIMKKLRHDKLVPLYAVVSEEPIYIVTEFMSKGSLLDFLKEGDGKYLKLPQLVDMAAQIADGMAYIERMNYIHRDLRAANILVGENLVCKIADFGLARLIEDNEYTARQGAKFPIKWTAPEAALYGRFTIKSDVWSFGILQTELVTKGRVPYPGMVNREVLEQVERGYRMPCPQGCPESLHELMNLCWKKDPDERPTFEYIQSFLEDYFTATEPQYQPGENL
Protein kinase C zeta type (Homo sapiens), sequence (Q05513 whole entry): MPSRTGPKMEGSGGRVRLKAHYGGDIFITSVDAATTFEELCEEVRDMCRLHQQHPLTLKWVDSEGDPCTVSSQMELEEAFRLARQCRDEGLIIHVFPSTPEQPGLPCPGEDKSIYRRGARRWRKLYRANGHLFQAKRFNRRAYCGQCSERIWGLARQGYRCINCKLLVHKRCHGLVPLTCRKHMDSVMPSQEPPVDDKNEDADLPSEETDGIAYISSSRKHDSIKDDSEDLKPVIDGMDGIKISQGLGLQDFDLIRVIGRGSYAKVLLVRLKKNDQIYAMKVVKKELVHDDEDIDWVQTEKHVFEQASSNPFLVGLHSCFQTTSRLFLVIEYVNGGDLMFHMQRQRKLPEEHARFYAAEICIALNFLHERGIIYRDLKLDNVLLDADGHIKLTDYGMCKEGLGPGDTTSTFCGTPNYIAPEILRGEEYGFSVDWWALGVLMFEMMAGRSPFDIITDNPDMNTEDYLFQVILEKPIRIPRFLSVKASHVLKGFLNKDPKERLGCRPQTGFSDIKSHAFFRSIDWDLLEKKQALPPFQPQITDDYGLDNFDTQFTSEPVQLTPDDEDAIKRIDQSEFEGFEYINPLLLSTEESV
Serine/threonine-protein kinase pim-2 (Homo sapiens), sequence (Q9P1W9 whole entry, looked up): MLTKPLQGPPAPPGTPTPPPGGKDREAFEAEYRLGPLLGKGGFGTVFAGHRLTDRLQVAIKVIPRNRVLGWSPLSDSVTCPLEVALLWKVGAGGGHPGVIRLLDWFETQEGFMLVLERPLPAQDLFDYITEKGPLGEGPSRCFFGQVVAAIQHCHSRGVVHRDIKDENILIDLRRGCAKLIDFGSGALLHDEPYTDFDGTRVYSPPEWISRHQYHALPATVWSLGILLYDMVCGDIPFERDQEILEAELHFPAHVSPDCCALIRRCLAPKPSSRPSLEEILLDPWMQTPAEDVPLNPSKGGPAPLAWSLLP
Serine/threonine-protein kinase SIK3 (Homo sapiens), sequence (Q9Y2K2 whole entry, looked up): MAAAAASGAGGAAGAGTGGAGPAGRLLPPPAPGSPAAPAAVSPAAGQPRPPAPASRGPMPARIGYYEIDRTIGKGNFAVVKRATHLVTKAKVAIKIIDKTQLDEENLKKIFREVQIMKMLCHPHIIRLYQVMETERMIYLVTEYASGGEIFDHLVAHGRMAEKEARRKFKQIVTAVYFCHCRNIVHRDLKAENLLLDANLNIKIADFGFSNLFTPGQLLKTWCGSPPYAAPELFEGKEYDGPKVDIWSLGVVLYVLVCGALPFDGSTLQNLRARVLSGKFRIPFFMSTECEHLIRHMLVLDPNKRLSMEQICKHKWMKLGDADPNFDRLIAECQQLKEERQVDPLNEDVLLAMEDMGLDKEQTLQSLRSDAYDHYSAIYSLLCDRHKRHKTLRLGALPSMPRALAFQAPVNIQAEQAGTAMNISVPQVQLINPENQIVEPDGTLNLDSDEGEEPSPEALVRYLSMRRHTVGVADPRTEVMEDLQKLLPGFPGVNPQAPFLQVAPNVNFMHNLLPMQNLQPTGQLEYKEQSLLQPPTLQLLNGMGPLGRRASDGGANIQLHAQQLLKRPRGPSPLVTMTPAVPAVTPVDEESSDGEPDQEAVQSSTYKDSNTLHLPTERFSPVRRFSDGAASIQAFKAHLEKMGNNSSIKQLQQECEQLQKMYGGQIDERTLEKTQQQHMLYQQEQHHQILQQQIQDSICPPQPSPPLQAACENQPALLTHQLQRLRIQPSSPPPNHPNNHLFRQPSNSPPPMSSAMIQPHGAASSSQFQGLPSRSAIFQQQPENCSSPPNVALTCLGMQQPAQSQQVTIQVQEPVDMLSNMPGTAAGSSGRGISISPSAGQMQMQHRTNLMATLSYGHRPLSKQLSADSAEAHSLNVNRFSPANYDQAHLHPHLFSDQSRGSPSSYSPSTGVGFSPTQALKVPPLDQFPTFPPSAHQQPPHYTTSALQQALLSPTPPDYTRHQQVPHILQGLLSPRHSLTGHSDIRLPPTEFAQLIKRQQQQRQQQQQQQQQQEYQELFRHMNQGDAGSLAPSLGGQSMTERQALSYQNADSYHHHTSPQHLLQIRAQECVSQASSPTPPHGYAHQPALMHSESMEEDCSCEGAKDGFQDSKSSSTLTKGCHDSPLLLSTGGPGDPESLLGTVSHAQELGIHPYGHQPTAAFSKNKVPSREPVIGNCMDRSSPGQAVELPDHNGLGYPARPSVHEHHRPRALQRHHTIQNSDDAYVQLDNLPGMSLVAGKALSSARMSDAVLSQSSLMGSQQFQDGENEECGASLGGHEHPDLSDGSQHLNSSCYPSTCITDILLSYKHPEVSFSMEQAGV
Vascular endothelial growth factor receptor 3 (Homo sapiens), sequence (P35916 whole entry): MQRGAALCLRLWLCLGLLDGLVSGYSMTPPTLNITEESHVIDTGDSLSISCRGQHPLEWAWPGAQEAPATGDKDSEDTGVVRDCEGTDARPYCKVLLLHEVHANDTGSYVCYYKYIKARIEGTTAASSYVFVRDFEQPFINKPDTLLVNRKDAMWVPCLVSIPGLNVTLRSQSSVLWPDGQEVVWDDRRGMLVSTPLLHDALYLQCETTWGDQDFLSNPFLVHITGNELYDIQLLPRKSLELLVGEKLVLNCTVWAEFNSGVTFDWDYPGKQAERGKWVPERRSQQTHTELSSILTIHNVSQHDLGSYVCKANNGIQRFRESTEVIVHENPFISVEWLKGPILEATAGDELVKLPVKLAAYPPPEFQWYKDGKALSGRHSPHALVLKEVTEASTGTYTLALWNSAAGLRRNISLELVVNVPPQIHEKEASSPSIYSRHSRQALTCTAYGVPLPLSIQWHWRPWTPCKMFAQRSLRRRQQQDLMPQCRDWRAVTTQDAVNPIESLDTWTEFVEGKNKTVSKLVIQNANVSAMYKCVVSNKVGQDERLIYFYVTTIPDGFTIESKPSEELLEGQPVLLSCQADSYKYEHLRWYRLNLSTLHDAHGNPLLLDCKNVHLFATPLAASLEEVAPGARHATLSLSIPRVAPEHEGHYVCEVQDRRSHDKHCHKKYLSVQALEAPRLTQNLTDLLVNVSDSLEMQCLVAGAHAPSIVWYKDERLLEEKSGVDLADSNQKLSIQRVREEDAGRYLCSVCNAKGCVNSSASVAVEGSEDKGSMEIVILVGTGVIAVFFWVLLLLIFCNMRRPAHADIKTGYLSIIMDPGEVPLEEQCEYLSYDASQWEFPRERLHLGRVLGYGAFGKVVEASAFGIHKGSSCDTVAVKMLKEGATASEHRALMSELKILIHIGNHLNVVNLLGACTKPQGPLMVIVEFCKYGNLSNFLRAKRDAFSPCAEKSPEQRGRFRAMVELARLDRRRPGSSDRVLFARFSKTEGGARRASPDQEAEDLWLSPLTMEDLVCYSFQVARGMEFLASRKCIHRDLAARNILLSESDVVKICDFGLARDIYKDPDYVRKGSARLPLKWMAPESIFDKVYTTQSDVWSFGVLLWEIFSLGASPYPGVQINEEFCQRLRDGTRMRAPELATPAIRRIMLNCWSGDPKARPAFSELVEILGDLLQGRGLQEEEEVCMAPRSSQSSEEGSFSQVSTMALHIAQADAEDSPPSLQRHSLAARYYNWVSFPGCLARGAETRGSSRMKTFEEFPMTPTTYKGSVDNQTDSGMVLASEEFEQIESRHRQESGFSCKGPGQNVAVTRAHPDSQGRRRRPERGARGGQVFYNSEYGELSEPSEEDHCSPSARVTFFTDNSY

Cc1nc(C2CCN(C(=O)c3ccc(OC(F)(F)F)cc3N)CC2)c2ncc(N3CCN(C)CC3)cc2n1 [BAY-693]
inactive: inhibition [1] 5.29%

CN1CCN(c2cnc3c(C4CCN(C(=O)c5ccc(OC(F)(F)F)cc5N)CC4)ncnc3c2)CC1 [BAY-885]
inactive: % residual kinase activity [2] 98% | % residual kinase activity [3] 123% | % residual kinase activity [4] 99% | % residual kinase activity [5] 114% | % residual kinase activity [6] 105% | % residual kinase activity [7] 99% | % residual kinase activity [8] 96% | % residual kinase activity [9] 91% | % residual kinase activity [10] 105% | % residual kinase activity [11] 94% | % residual kinase activity [12] 114% | % residual kinase activity [13] 110% | % residual kinase activity [14] 101% | % residual kinase activity [15] 81% | % residual kinase activity [16] 112%

Source: ChEMBL document CHEMBL4507268 (2021)
